Tests used:
BTK kinase = BTK kinase (Homo sapiens (Human), UniProt Q06187); assay: In vitro assay for the inhibition of BTK kinase activity (Mobility-Shift Assay); format: biochemical
Outline: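 Fluorescently labelled peptide substrate converted by the kinase; substrate and phosphorylated product separated by charge on a microfluidic chip (mobility shift) and quantified separately. Results expressed as conversion rate; control wells received 100% DMSO.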

DOHH2 cells = assay: Cell proliferation inhibition in vitro, DOHH2 cells by CTG assay; format: cell-based; conditions: Homo sapiens, DOHH-2, 72 hours, read-out: Inhibitions of cell activities IC50 (nM) DOHH2
Method: (§1) Test Example 2: Determination of the Inhibition of Cell Proliferation Inhibitory Activity in
(§2) vitro of compounds using different cell lines
(§3) 2: Preparation of the Compounds:
(§4) The compounds to be tested were diluted with DMSO to prepare a mother liquor at a final concentration of 10 mM for later use.
3.2 Test of DOHH2 Cells by CTG Assay
(§5) Logarithmic growth phase cells were collected, counted and resuspended in complete medium. The cell concentration was adjusted to a suitable concentration (determined according to the cell density optimization test results), and seeded to 96-well plate and 100 μl of the cell suspension was added to each well. The cells were incubated in an incubator at 37° C., 100% relative humidity and 5% C02 for 24 hours.
The compounds to be tested were diluted with the medium to the set corresponding action concentration, and the cells were added at 10 µl/well. The cells were incubated in an incubator set at 37° C., 100% relative humidity and 5% C02 for 72 hours.
The medium was aspirated and discarded, and 30 μl of test reagent was added. The plate was gentle shaken away from the light to lyse the cells.
(§6) As: OA of the sample (cell+test reagent+test compound)
(§7) Ac: OA of the negative control (cell+test reagent+DMSO)
(§8) Ab: OA of the positive control (medium+test reagent+DMSO)
(§9) IC50 curve fitting was performed using the software Graphpad Prism 5 or XLfit and IC50 values were calculated.

TMD8 cells = assay: Cell proliferation inhibition in vitro, TMD8 cells by CCK-8 method; format: cell-based; conditions: Homo sapiens, 72 hours, read-out: Inhibitions of cell activities IC50 (nM) TMD8
Method: as §1, §2, §3, §4
(§10) 3.1. Test of TMD8 and OCI-ly10 Cells by CCK-8 Method
as §5
(§11) The compounds to be tested were diluted with the medium to the set corresponding action concentration, and the cells were added at 25 µl/well. The cells were incubated in an incubator at 37° C., 100% relative humidity and 5% C02 for 72 hours.
(§12) The medium was aspirated and discarded, and a complete medium containing 10% of the test reagent was added and the obtained system was incubated in a 37° C. incubator for 1 hour-4 hours.
as §6, §7, §8, §9

OCI-LY10 cells = assay: Cell proliferation inhibition in vitro, OCI-ly10 cells by CCK-8 method; format: cell-based; conditions: Homo sapiens, 72 hours, read-out: Inhibitions of cell activities IC50 (nM) OCI-LY10
Method: as §1, §2, §3, §4, §10, §5, §11, §12, §6, §7, §8, §9

Sequence of BTK kinase (Q06187 whole entry): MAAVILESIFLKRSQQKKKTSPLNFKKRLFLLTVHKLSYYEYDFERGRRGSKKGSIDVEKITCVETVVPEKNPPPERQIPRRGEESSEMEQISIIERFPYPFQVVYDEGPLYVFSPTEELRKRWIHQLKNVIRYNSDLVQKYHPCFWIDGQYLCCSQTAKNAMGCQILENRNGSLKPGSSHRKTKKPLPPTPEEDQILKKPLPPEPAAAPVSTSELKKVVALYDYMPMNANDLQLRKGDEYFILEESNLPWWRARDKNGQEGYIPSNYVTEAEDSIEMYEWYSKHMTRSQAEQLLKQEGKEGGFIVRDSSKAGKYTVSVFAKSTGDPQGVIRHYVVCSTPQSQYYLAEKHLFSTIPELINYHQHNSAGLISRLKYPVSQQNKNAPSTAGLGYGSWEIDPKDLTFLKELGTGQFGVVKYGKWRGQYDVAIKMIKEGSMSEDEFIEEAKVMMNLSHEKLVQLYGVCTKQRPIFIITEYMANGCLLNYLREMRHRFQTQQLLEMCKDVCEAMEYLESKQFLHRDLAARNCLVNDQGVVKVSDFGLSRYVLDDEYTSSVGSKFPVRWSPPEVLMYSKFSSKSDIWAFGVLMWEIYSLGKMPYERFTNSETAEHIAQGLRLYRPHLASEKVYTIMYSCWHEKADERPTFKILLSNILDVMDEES

IC50 (BTK kinase) | IC50 (OCI-LY10 cells) | Compound | IC50 (DOHH2 cells) | IC50 (TMD8 cells)
2.4 nM | 0.35 nM | C=CC(=O)N1C2CN[C@@H](C2)C1c1nc(-c2ccc(C(=O)Nc3cc(C(F)(F)F)ccn3)cc2)c2c(N)nccn12 (stereo partly drawn) [Example 52] | 174 nM | 6.4 nM
19 nM | 0.31 nM | C=CC(=O)N1C2C[C@@H](C1c1nc(-c3ccc(Oc4ccccc4)cc3)c3c(N)nccn13)N(C(C)C)C2 (stereo partly drawn) [Example 109] | 184 nM | 7.2 nM
30 nM | 2.1 nM | CC#CC(=O)N1C2C[C@@H](C1c1nc(-c3ccc(Oc4ccccc4)cc3)c3c(N)nccn13)N(C(C)C)C2 (stereo partly drawn) [Example 111] | 672 nM | 4.3 nM
5.3 nM | 0.33 nM | C=CC(=O)N1CC2CCCC2C1c1nc(-c2ccc(C(=O)Nc3cc(C(F)(F)F)ccn3)cc2)c2c(N)nccn12 (stereo not drawn) [Example 42] | 104 nM | 0.26 nM
3.6 nM | 0.53 nM | C=CC(=O)N1CC2(CC2)C[C@H]1c1nc(-c2ccc(Oc3ccccc3)cc2)c2c(N)nccn12 [Example 93, (S)-1-(6-(8-amino-1-(4-phenoxyphenyl)imidazo[1,5-a]pyrazin-3-yl)-5-azaspiro[2.4]heptan-5-yl)prop-2-en-1-one] | 318 nM | 0.65 nM
58 nM | 8.7 nM | C=CC(=O)N1CC2(CC2)C[C@H]1c1nc(-c2ccccc2C(=O)Nc2ccccn2)c2c(N)nccn12 [Example 125, (S)-2-(3-(5-acryloyl-5-azaspiro[2.4]heptan-6-yl)-8-aminoimidazo[1,5-a]pyrazin-1-yl)-N-(pyridin-2-yl)benzamide] | > 1000 nM | 24.9 nM
47 nM | 0.78 nM | C=CC(=O)N1C2CN[C@@H](C2)C1c1nc(-c2ccc(Oc3ccccc3)cc2)c2c(N)nccn12 (stereo partly drawn) [Example 106] | > 1000 nM | 21.4 nM
4.3 nM | 3.4 nM | C=CC(=O)N1C2C[C@@H](C1c1nc(-c3ccc(C(=O)Nc4cc(C(F)(F)F)ccn4)cc3)c3c(N)nccn13)N(C(C)=O)C2 (stereo partly drawn) [Example 56] | 74 nM | 5.9 nM
2.8 nM | 0.4 nM | CC#CC(=O)N1CC2CCCC2C1c1nc(-c2ccc(Oc3ccccc3)cc2)c2c(N)nccn12 (stereo not drawn) [Example 97] | > 1000 nM | 6.2 nM
4.3 nM | 0.31 nM | CC#CC(=O)N1CC2(CC2)C[C@H]1c1nc(-c2ccc(Oc3ccccc3)cc2)c2c(N)nccn12 [Example 92, (S)-1-(6-(8-amino-1-(4-phenoxyphenyl)imidazo[1,5-a]pyrazin-3-yl)-5-azaspiro[2.4]heptan-5-yl) but-2-yn-1-one] | 712 nM | 7.6 nM
13 nM | 3.9 nM | C=CC(=O)N1C2CC[C@@H](C2)C1c1nc(-c2ccc(C(=O)Nc3cc(C)ccn3)cc2)c2c(N)nccn12 (stereo partly drawn) [Example 62] | 179 nM | 2.8 nM
2.4 nM | 3.2 nM | C=CC(=O)N1C2CC[C@@H](C2)C1c1nc(-c2ccc(C(=O)Nc3cc(Cl)ccn3)cc2)c2c(N)nccn12 (stereo partly drawn) [Example 70] | 677 nM | 6.8 nM
24 nM | 4.1 nM | C=CC(=O)N1CC2CCC1(c1nc(-c3ccc(C(=O)Nc4ccccn4)cc3)c3c(N)nccn13)CC2 [Example 120, 4-(3-(2-acryloyl-2-azabicyclo[2.2.2]octan-1-yl)-8-aminoimidazo[1,5-a]pyrazin-1-yl)-N-(pyridin-2-yl)benzamide] | 921 nM | 6.4 nM
24 nM | 0.67 nM | CC#CC(=O)N1C2CC[C@@H](C2)C1c1nc(-c2ccc(C(C)(O)c3ccccc3)cc2)c2c(N)nccn12 (stereo partly drawn) [Example 80] | 618 nM | 4.3 nM
24 nM | 0.33 nM | C=CC(=O)N1C2CC[C@@H](C2)C1c1nc(-c2ccc(Oc3ccccc3)cc2)c2c(N)nccn12 (stereo partly drawn) [Example 98] | > 1000 nM | 6.8 nM
17 nM | 1.1 nM | CC#CC(=O)N1C[C@H]2[C@@H](C1c1nc(-c3ccc(C(=O)Nc4cc(C(F)(F)F)ccn4)cc3)c3c(N)nccn13)C2(C)C (stereo partly drawn) [Example 45] | 285 nM | 6.4 nM
14 nM | 0.23 nM | C=CC(=O)N1C2C[C@@H](C1c1nc(-c3ccc(C(C)(O)c4ccccc4)cc3)c3c(N)nccn13)N(C(C)C)C2 (stereo partly drawn) [Example 89] | 96 nM | 2.4 nM
17.4 nM | 17.6 nM | C=CC(=O)N1C2C[C@@H](C1c1nc(-c3ccc(C(=O)Nc4ccccn4)cc3)c3c(N)nccn13)N(C)C2 (stereo partly drawn) [Example 15] | 716 nM | 64.5 nM
12.5 nM | 1.8 nM | CC#CC(=O)N1C2CN[C@@H](C2)C1c1nc(-c2ccc(C(=O)Nc3ccccn3)cc2)c2c(N)nccn12 (stereo partly drawn) [Example 14] | > 1000 nM | 7.5 nM
2.8 nM | 0.13 nM | C=CC(=O)N1CC2CC1(c1nc(-c3ccc(C(=O)Nc4ccccn4)cc3)c3c(N)nccn13)CO2 (stereo not drawn) [Example 9] | 74.3 nM | 0.2 nM
4.6 nM | 7.4 nM | CN(C)C/C=C/C(=O)N1CC2CCCC2[C@H]1c1nc(-c2ccc(C(=O)Nc3ccccn3)cc2)c2c(N)nccn12 (stereo partly drawn) [Example 113, 4-(8-amino-3-((1S)-2-((E)-4-(dimethylamino)-2-butenoyl)octahydrocyclopenta [c]pyrrol-1-yl)imidazo[1,5-a]pyrazin-1-yl)-N-(pyridin-2-yl)benzamide] | > 1000 nM | 12.5 nM
21 nM | 0.41 nM | CN(C)C/C=C/C(=O)N1CC2(CC2)C[C@H]1c1nc(-c2ccc(C(=O)Nc3ccccn3)cc2)c2c(N)nccn12 [Example 112, (S,E)-4-(8-amino-3-(5-(4-(dimethylamino)but-2-enoyl)-5-azaspiro[2.4]heptan-6-yl)imidazo[1,5-a]pyrazin-1-yl)-N-(pyridin-2-yl)benzamide] | 902 nM | 0.31 nM

Compound | IC50 (BTK kinase) | IC50 (OCI-LY10 cells) | IC50 (DOHH2 cells) | IC50 (TMD8 cells)
CC#CC(=O)N1C2CCC1(c1nc(-c3ccc(C(=O)Nc4ccccn4)cc3)c3c(N)nccn13)COC2 (stereo not drawn) [Example 12] | 14 nM | 7.4 nM | 129 nM | 4.3 nM
CC#CC(=O)N1C2CCC1(c1nc(-c3ccc(Oc4ccccc4)cc3)c3c(N)nccn13)COC2 (stereo not drawn) [Example 105] | 18 nM | 0.41 nM | 916 nM | 8.4 nM
C=CC(=O)N1C2CCC1(c1nc(-c3ccc(C(C)(O)c4ccccc4)cc3)c3c(N)nccn13)COC2 (stereo not drawn) [Example 84] | 16.3 nM | 4.2 nM | 48 nM | 6.8 nM
C=CC(=O)N1[C@H]2CC[C@@H]1[C@@H](c1nc(-c3ccc(C(=O)Nc4ccccn4)cc3)c3c(N)nccn13)C2 [Example 118, 4-(3-((1R,2S,4S)-7-acryloyl-7-azabicyclo[2.2.1]heptan-2-yl)-8-aminoimidazo[1,5-a]pyrazin-1-yl)-N-(pyridin-2-yl)benzamide] | 5.6 nM | 4.1 nM | 712 nM | 3.9 nM
C=CC(=O)N1C2CCC1(c1nc(-c3ccc(C(=O)Nc4cc(C(F)(F)F)ccn4)cc3)c3c(N)nccn13)COC2 (stereo not drawn) [Example 48] | 2.1 nM | 0.46 nM | 103 nM | 0.31 nM

— patent US10793576B2, “Compound used as Bruton's tyrosine kinase inhibitor and preparation method and application thereof” (Chengdu Brilliant Pharmaceutical Co., LTD., priority 2017, dated 2020)
